Experimental data taken from ChEMBL document CHEMBL5226392, “Anti-inflammatory Quinoline Alkaloids from the Roots of Waltheria indica” (J Nat Prod, 2023).
Calls of active or inactive are those of the source. No cut-off for these calls is given here.

Tests used:
[1] = Cytotoxicity against TNF-alpha induced human 293/NFkB-Luc cells assessed as increase in cell survival at 50 uM preincubated for 15 mins followed by TNF-alpha induction and measured after 6 hrs by MTT assay relative to control; type: toxicity, cell-based; details: TNF-alpha induced 293/NFkB-Luc cells, time 375 min, read-out: Activity
[2] = Cytotoxicity against LPS-stimulated mouse RAW264.7 cells assessed as cell survival at 50 uM preincubated for 15 mins followed by LPS stimulation and measured after 20 hrs by CCK-8 assay relative to control; type: toxicity, cell-based; details: LPS-stimulated RAW264.7 cells, time 1215 min, read-out: Activity
[3] = Antiinflammatory activity in human 293/NFkB-Luc cells assessed as inhibition of TNF-alpha induced NFkaapaB activity at 50 uM preincubated for 15 mins followed by TNF-alpha induction and measured after 6 hrs by luminescence based assay relative to control; type: functional; details: 6.25 h, time 375 min
RAW264.7 [4] = assay: Inhibition of NO production in LPS-stimulated mouse RAW264.7 cells at 50 uM preincubated for 15 mins followed by LPS stimulation and measured after 20 hrs by Griess reagent based assay relative to control; type: functional; details: RAW264.7, 20.25 h, time 1215 min
RAW264.7 [5] = assay: Inhibition of NO production in LPS-stimulated mouse RAW264.7 cells preincubated for 15 mins followed by LPS stimulation and measured after 20 hrs by Griess reagent based assay; type: functional, cell-based
[6] = Antiinflammatory activity in human 293/NFkB-Luc cells assessed as inhibition of TNF-alpha induced NFkaapaB activity preincubated for 15 mins followed by TNF-alpha induction and measured after 6 hrs by luminescence based assay; type: functional, cell-based
[7] = Cytotoxicity against LPS-stimulated mouse RAW264.7 cells assessed as cell growth inhibition preincubated for 15 mins followed by LPS stimulation and measured after 20 hrs by CCK-8 assay; type: toxicity, cell-based; details: LPS-stimulated RAW264.7 cells
RAW264.7 [8] = assay: Antiinflammatory activity in mouse RAW264.7 cells assessed as inhibition of LPS-induced […] at 10 to 30 uM preincubated for 15 mins followed by LPS stimulation and measured after 4 hrs by qPCR analysis; type: functional, cell-based; details: dose 10-30 µM, time 255.0 min
RAW264.7 [9] = assay: Antiinflammatory activity in mouse RAW264.7 cells assessed as inhibition of LPS-induced iNOS protein expression at 30 uM preincubated for 15 mins followed by LPS stimulation and measured after 24 hrs by Western blot analysis; type: functional, cell-based; details: time 1215.0 min

Row | SMILES | viability at 6 h, 50 µM [1] [%] | viability at 20 h, 50 µM [2] [%] | inhibition at 50 µM [3] [%] | inhibition at 50 µM (RAW264.7 [4]) [%] | IC50 (RAW264.7 [5]) [µM] | IC50 [6] [µM] | IC50 at 20 h [7] [µM] | Activity (RAW264.7 [8]) | Activity (RAW264.7 [9])
1 | COc1c(C)[nH]c2c(OC)ccc(C(=O)CCCCc3ccccc3)c2c1=O | 76.8 | 82.8 | < 50 | < 50 |  |  |  |  | 
2 | CCCCCCC[C@H](O)c1ccc(OC)c2[nH]c(C)c(OC)c(=O)c12 | 75.6 | 64.7 | < 50 | 91.7 | 25.8 |  |  |  | 
3 | COc1c(C)n(OC)c2c(c1=O)[C@@H](CCCCCc1ccccc1)CCC2 | 89 | < 50 | 88.6 | 99.7 | 11 | 12.1 | 32.2 |  | 
4 | COc1c(C)[nH]c2c(c1=O)[C@@H](CCCCCc1ccccc1)CCC2=O | 88.4 | 67.5 | < 50 | 59.7 | 40.7 |  |  |  | 
5 | COc1c(C)[nH]c2c(OC)ccc(CCCCCCC(C)=O)c2c1=O | 75.8 | 86.5 | < 50 | 63.8 | 35.6 |  |  |  | 
6 | COc1ccccc1[C@]1(O)c2ccc3[nH]c(C)c(OC)c(=O)c3c2[C@@H]2CC[C@H]1O2 | 86.7 | 100 | < 50 | < 50 |  |  |  |  | 
7 | COc1ccc(OC)c([C@@]2(O)c3ccc4[nH]c(C)c(OC)c(=O)c4c3[C@@H]3CC[C@H]2O3)c1 | 74.5 | 100 | < 50 | < 50 |  |  |  |  | 
8 | COc1c(C)[nH]c2c(O)ccc(CCCCCc3ccccc3)c2c1=O | 83.5 | 59.3 | < 50 | < 50 |  |  |  |  | 
9 | COc1ccccc1[C@@H]1c2ccc3[nH]c(C)c(OC)c(=O)c3c2[C@@H]2CC[C@H]1O2 | 79.6 | 100 | 84.5 | 56.3 | 38.8 | 7.2 |  |  | 
10 | CC[C@@H](C)[C@@H]1NC(=O)[C@@H](NC(=O)[C@H](Cc2ccccc2)N(C)C)[C@@H](c2ccccc2)Oc2ccc(cc2)/C=C\NC1=O | 86.4 | 94.8 | < 50 | < 50 |  |  |  |  | 
11 | COc1c(C)[nH]c2c(c1=O)[C@H](CCCCCc1ccccc1)CCC2 | 91.8 | 61 | 81.6 | 99.1 | 12.8 | 10.1 |  |  | 
12 | CCCCCCCC[C@H]1CC[C@@H](OC)c2[nH]c(C)c(OC)c(=O)c21 | 90.3 | 51.4 | < 50 | 60.3 | 42.9 |  |  |  | 
13 | CCCCCCCCc1ccc(O)c2[nH]c(C)c(OC)c(=O)c12 | 83.6 | 70.2 | < 50 | < 50 |  |  |  |  | 
14 | Cc1ccc(S(=O)(=O)/C=C/C#N)cc1 |  |  |  |  |  | 9.7 |  |  | 
15 | COc1c(C)[nH]c2ccc3c(c2c1=O)[C@@H]1CCC[C@@]3(c2ccccc2)O1 | 89 | 100 | 78 | 58.7 | 35.7 | 7.1 |  |  | 
16 | O=C1N/C=C\c2ccc(cc2)O[C@@H](c2ccccc2)[C@H](NC(=O)[C@@H]2CCCN2C(=O)/C=C/c2ccccc2)C(=O)N[C@H]1Cc1ccccc1 | 76.6 | 100 | < 50 | 63.7 | 32 |  |  |  | 

Row | SMILES | viability at 6 h, 50 µM [1] [%] | viability at 20 h, 50 µM [2] [%] | inhibition at 50 µM [3] [%] | inhibition at 50 µM (RAW264.7 [4]) [%] | IC50 (RAW264.7 [5]) [µM] | IC50 [6] [µM] | IC50 at 20 h [7] [µM] | Activity (RAW264.7 [8]) | Activity (RAW264.7 [9])
17 | CCCCCCC[C@@H](O)c1ccc(OC)c2[nH]c(C)c(OC)c(=O)c12 | 72.6 | 84.9 | < 50 | 86.5 | 25.8 |  |  |  | 
18 | COc1c(C)[nH]c2c(c1=O)[C@@H](CCCCCc1ccccc1)CC[C@H]2OC | 69.9 | 57.2 | < 50 | < 50 |  |  |  |  | 
19 | CCCCCCCC[C@H]1CCCc2[nH]c(C)c(OC)c(=O)c21 | 90.8 | 67.6 | < 50 | 99.9 | 20.8 |  |  |  | 
20 | CCCCCCCC(=O)c1ccc(OC)c2[nH]c(C)c(OC)c(=O)c12 | 86.7 | 69.9 | < 50 | < 50 |  |  |  |  | 
21 | COc1c(C)n(OC)c2c(c1=O)[C@@H](CCCCCc1ccc(O)cc1)CCC2 | 85.3 | < 50 | 85.4 | 94.5 | 18.8 | 10.3 | 25.9 |  | 
22 | CCCCCCCC[C@H]1CCC(=O)c2[nH]c(CO)c(OC)c(=O)c21 | 93.1 | 50.9 | < 50 | 89.9 | 25.4 |  |  |  | 
23 | COc1c(C)[nH]c2cccc(CCCCCc3ccccc3)c2c1=O | 76.7 | < 50 | 77.5 | 97.9 | 11.4 | 10.2 | 33.3 |  | 
24 | COc1c(C)[nH]c2c(c1=O)[C@@H](CCCCC(=O)c1ccccc1)CCC2=O | 82.2 | 74.5 | < 50 | < 50 |  |  |  |  | 
25 | COc1c(C)[nH]c2c(c1=O)[C@@H](CCCCCc1ccc(O)cc1)CCC2=O | 80.5 | 89.3 | < 50 | < 50 |  |  |  |  | 
26 | COc1c(CO)[nH]c2c(c1=O)[C@@H](CCCCCc1ccccc1)CCC2=O | 100 | 50.8 | 71.1 | 79.1 | 31 | 11.9 |  |  | 
27 | CNC(=N)NCCC[C@H](N)C(=O)O |  |  |  |  | 22.7 |  |  |  | 
28 | COc1c(C)[nH]c2c(c1=O)[C@@H](CCCCCc1ccccc1)CCC2 | 77.2 | 84.3 | < 50 | 97.2 | 11.7 |  |  | Active | Active
29 | CC[C@H](C)[C@@H]1NC(=O)[C@H](NC(=O)/C=C/c2ccccc2)[C@H](c2ccccc2)Oc2ccc(cc2)/C=C\NC1=O | 100 | 100 | < 50 | 58.5 | 43 |  |  |  | 
30 | COc1c(C)n(OC)c2c(c1=O)[C@@H](CCCCC(=O)c1ccccc1)CCC2 | 82.7 | 73.2 | 97.9 | < 50 |  | 8.9 |  |  | 
31 | CCCCCCCC[C@H]1CCC(=O)c2[nH]c(C)c(OC)c(=O)c21 | 85.8 | 63.5 | < 50 | 97.4 | 16.1 |  |  |  | Active
